# Experimental data published in paper PMC6803859, “Structural Basis for the Regulation of PPARγ Activity by Imatinib” (Molecules, 2019).
# Where a chain is given by its changes, count along the chain named.
# Tests used:
# PPARγ WT LBD = target: T1, PPARγ WT LBD (Homo sapiens, UniProt P37231); assay: SPR (Biacore T200, immobilized LBD); format: binding
# T1 construct: gene PPARG; LBD, residues 195–477 in PPARγ1 numbering
# T1 sequence (P37231 223-505): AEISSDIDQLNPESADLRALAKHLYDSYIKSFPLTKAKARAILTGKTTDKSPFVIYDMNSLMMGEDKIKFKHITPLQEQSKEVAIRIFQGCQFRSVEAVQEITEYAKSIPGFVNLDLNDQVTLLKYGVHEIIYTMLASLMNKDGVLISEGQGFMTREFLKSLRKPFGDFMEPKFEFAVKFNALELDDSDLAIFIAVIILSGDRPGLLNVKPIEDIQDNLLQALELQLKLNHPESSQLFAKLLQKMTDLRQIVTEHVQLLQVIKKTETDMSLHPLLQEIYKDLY
# PPARγ R288A mutant LBD = target: T2, PPARγ R288A mutant LBD (Homo sapiens, UniProt P37231, R316A); assay: ([…] Å) and SPR (Biacore T200); format: binding
# T2 construct: gene PPARG; LBD, residues 195–477 in PPARγ1 numbering
# T2 sequence (P37231 223-505 R316A): T1 sequence (P37231 223-505) with R94A
smiles,measurement,setting,value
Cc1ccc(NC(=O)c2ccc(CN3CCN(C)CC3)cc2)cc1Nc1nccc(-c2cccnc2)n1 [imatinib],Kd,PPARγ WT LBD,231 nM
same,Kd,PPARγ R288A mutant LBD,152 nM
